The values below come from the supplement of paper PMC10307832.

Holding throughout (test): relative viability (nuclei count vs DMSO), 5 days (fraction); higher = more cells survive
Compound in the assay “KIN001-266 + Foretinib”: CCN1CCC(CC1)N2C=C(N=N2)CNC3=CC4=C(C(=CN=C4C(=C3)Cl)C#N)NC5=CC(=C(C=C5)F)Cl [KIN001-266] + COc1cc2c(Oc3ccc(NC(=O)C4(C(=O)Nc5ccc(F)cc5)CC4)cc3F)ccnc2cc1OCCCN1CCOCC1 [Foretinib] (partner 0.25 µM)
The method in brief:
(§1)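 Relative viability equals treated-well nuclei counts divided by vehicle-well nuclei counts. Counts came from 4× images of lung cancer cell lines grown in 1536-well plates for 5 days after pin-tool dosing on the day after seeding. Dosing used one drug alone or a fixed anchor-drug dose plus five library-drug doses (not always all listed) in √10 steps, and values are medians of duplicate plates.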

Compound in the assay “KIN001-266 + Alpelisib”: CCN1CCC(CC1)N2C=C(N=N2)CNC3=CC4=C(C(=CN=C4C(=C3)Cl)C#N)NC5=CC(=C(C=C5)F)Cl [KIN001-266] + Cc1nc(NC(=O)N2CCC[C@H]2C(N)=O)sc1-c1ccnc(C(C)(C)C(F)(F)F)c1 [Alpelisib] (partner 2 µM)
The method in brief: as §1

Compound in the assay “KIN001-266 + Pemetrexed”: CCN1CCC(CC1)N2C=C(N=N2)CNC3=CC4=C(C(=CN=C4C(=C3)Cl)C#N)NC5=CC(=C(C=C5)F)Cl [KIN001-266] + Nc1nc2[nH]cc(CCc3ccc(C(=O)N[C@@H](CCC(=O)O)C(=O)O)cc3)c2c(=O)[nH]1 [Pemetrexed] (partner 0.2 µM)
The method in brief:
as §1

Compound in the assay “KIN001-266 + Olaparib”: CCN1CCC(CC1)N2C=C(N=N2)CNC3=CC4=C(C(=CN=C4C(=C3)Cl)C#N)NC5=CC(=C(C=C5)F)Cl [KIN001-266] + O=C(c1cc(Cc2n[nH]c(=O)c3ccccc23)ccc1F)N1CCN(C(=O)C2CC2)CC1 [Olaparib] (partner 8 µM)
The method in brief: as §1

With COR-L 105, the relative viability in the assay with KIN001-266 + Foretinib (first compound 0.08 µM) amounted to 0.795; with KIN001-266 + Foretinib (first compound 0.253 µM), 1.09; with KIN001-266 + Foretinib (first compound 0.8 µM) it was 0.92; in the assay with KIN001-266 + Foretinib (first compound 2.53 µM), 0.915; with KIN001-266 + Foretinib (first compound 8 µM), 0.758; with KIN001-266 + Alpelisib (first compound 0.08 µM), 1.15. The relative viability with KIN001-266 + Alpelisib (first compound 0.253 µM) was determined as 0.859; with KIN001-266 + Alpelisib (first compound 0.8 µM), 1.14; with KIN001-266 + Alpelisib (first compound 2.53 µM), 0.9; with KIN001-266 + Alpelisib (first compound 8 µM) it was 0.896; with KIN001-266 + Pemetrexed (first compound 0.08 µM) it was 1.13; with KIN001-266 + Pemetrexed (first compound 0.253 µM), 1.06. In addition, the relative viability was found to be 0.883 with KIN001-266 + Pemetrexed (first compound 0.8 µM); 1.11 with KIN001-266 + Pemetrexed (first compound 2.53 µM); 1.07 with KIN001-266 + Pemetrexed (first compound 8 µM); 0.729 with KIN001-266 + Olaparib (first compound 0.08 µM); 0.619 with KIN001-266 + Olaparib (first compound 0.253 µM); 0.651 with KIN001-266 + Olaparib (first compound 0.8 µM). Further, the values for the relative viability with KIN001-266 + Olaparib (first compound 2.53 µM) and with KIN001-266 + Olaparib (first compound 8 µM) were 0.521 and 0.566, respectively.
Turning to NCI-H1734, the relative viability with KIN001-266 + Foretinib (first compound 0.08 µM) stood at 0.951; in the assay with KIN001-266 + Foretinib (first compound 0.253 µM) it was 0.801; with KIN001-266 + Foretinib (first compound 0.8 µM) it was 0.704; with KIN001-266 + Foretinib (first compound 2.53 µM), 0.813; with KIN001-266 + Foretinib (first compound 8 µM), 0.798; with KIN001-266 + Alpelisib (first compound 0.08 µM), 0.686. Besides, the relative viability in the assay with KIN001-266 + Alpelisib (first compound 0.253 µM) is 0.686; with KIN001-266 + Alpelisib (first compound 0.8 µM), 0.546; with KIN001-266 + Alpelisib (first compound 2.53 µM), 0.716; in the assay with KIN001-266 + Alpelisib (first compound 8 µM), 0.704; with KIN001-266 + Pemetrexed (first compound 0.08 µM), 0.425; in the assay with KIN001-266 + Pemetrexed (first compound 0.253 µM), 0.426. The relative viability turned out to be 0.435 with KIN001-266 + Pemetrexed (first compound 0.8 µM); 0.388 in the assay with KIN001-266 + Pemetrexed (first compound 2.53 µM); 0.417 with KIN001-266 + Pemetrexed (first compound 8 µM); 0.719 with KIN001-266 + Olaparib (first compound 0.08 µM); 0.6 with KIN001-266 + Olaparib (first compound 0.253 µM); 0.505 with KIN001-266 + Olaparib (first compound 0.8 µM). Also, the relative viability with KIN001-266 + Olaparib (first compound 2.53 µM) was 0.551; in the assay with KIN001-266 + Olaparib (first compound 8 µM), 0.425.
For the cell line NCI-H3122, the relative viability with KIN001-266 + Foretinib (first compound 0.08 µM) amounted to 0.98; in the assay with KIN001-266 + Foretinib (first compound 0.253 µM) it was 0.961; in the assay with KIN001-266 + Foretinib (first compound 0.8 µM), 0.94; with KIN001-266 + Foretinib (first compound 2.53 µM), 0.918; with KIN001-266 + Foretinib (first compound 8 µM), 0.914; with KIN001-266 + Alpelisib (first compound 0.08 µM) it was 0.841. The relative viability with KIN001-266 + Alpelisib (first compound 0.253 µM) was found to be 0.909; in the assay with KIN001-266 + Alpelisib (first compound 0.8 µM), 0.699; with KIN001-266 + Alpelisib (first compound 2.53 µM), 0.728; in the assay with KIN001-266 + Alpelisib (first compound 8 µM), 0.767; in the assay with KIN001-266 + Pemetrexed (first compound 0.08 µM) it was 0.206; in the assay with KIN001-266 + Pemetrexed (first compound 0.253 µM) it was 0.2. The relative viability came out at 0.198 in the assay with KIN001-266 + Pemetrexed (first compound 0.8 µM); 0.197 with KIN001-266 + Pemetrexed (first compound 2.53 µM); 0.214 with KIN001-266 + Pemetrexed (first compound 8 µM); 0.588 with KIN001-266 + Olaparib (first compound 0.08 µM); 0.689 with KIN001-266 + Olaparib (first compound 0.253 µM); 0.636 with KIN001-266 + Olaparib (first compound 0.8 µM). In addition, the relative viability in the assay with KIN001-266 + Olaparib (first compound 2.53 µM) amounted to 0.576; with KIN001-266 + Olaparib (first compound 8 µM), 0.524.
As for CAL-12T, the relative viability in the assay with KIN001-266 + Foretinib (first compound 0.08 µM) is 1.21; with KIN001-266 + Foretinib (first compound 0.253 µM), 1.01; with KIN001-266 + Foretinib (first compound 0.8 µM), 1.02; with KIN001-266 + Foretinib (first compound 2.53 µM), 0.974; with KIN001-266 + Foretinib (first compound 8 µM), 1.11; with KIN001-266 + Alpelisib (first compound 0.08 µM), 1.43. Moreover, the relative viability came out at 1.39 in the assay with KIN001-266 + Alpelisib (first compound 0.253 µM); 1.11 with KIN001-266 + Alpelisib (first compound 0.8 µM); 1.3 with KIN001-266 + Alpelisib (first compound 2.53 µM); 1.02 with KIN001-266 + Alpelisib (first compound 8 µM); 1.25 with KIN001-266 + Pemetrexed (first compound 0.08 µM); 1.1 with KIN001-266 + Pemetrexed (first compound 0.253 µM). The relative viability was found to be 1.15 in the assay with KIN001-266 + Pemetrexed (first compound 0.8 µM); 1.2 with KIN001-266 + Pemetrexed (first compound 2.53 µM); 1.15 with KIN001-266 + Pemetrexed (first compound 8 µM); 0.785 in the assay with KIN001-266 + Olaparib (first compound 0.08 µM); 0.732 with KIN001-266 + Olaparib (first compound 0.253 µM); 0.663 with KIN001-266 + Olaparib (first compound 0.8 µM). Also, the relative viability came out at 0.652 with KIN001-266 + Olaparib (first compound 2.53 µM) and 0.633 in the assay with KIN001-266 + Olaparib (first compound 8 µM).
HCC-78: the relative viability turned out to be 0.529 with KIN001-266 + Foretinib (first compound 0.08 µM); 0.588 with KIN001-266 + Foretinib (first compound 0.253 µM); 0.575 with KIN001-266 + Foretinib (first compound 2.53 µM); 0.527 in the assay with KIN001-266 + Foretinib (first compound 8 µM); 0.302 with KIN001-266 + Alpelisib (first compound 0.08 µM); 0.346 with KIN001-266 + Alpelisib (first compound 0.253 µM). Also, the relative viability with KIN001-266 + Alpelisib (first compound 0.8 µM) was found to be 0.377; in the assay with KIN001-266 + Alpelisib (first compound 2.53 µM), 0.46; with KIN001-266 + Alpelisib (first compound 8 µM), 0.411; in the assay with KIN001-266 + Pemetrexed (first compound 0.08 µM), 0.874; with KIN001-266 + Pemetrexed (first compound 0.253 µM) it was 0.832; with KIN001-266 + Pemetrexed (first compound 0.8 µM), 0.872. The relative viability with KIN001-266 + Pemetrexed (first compound 2.53 µM) was 0.873; with KIN001-266 + Pemetrexed (first compound 8 µM), 0.91; with KIN001-266 + Olaparib (first compound 0.08 µM), 0.832; with KIN001-266 + Olaparib (first compound 0.253 µM), 0.793; with KIN001-266 + Olaparib (first compound 0.8 µM) it was 0.767; with KIN001-266 + Olaparib (first compound 2.53 µM), 0.841. In addition, the relative viability with KIN001-266 + Olaparib (first compound 8 µM) stood at 0.677.
Take NCI-H2085: the relative viability in the assay with KIN001-266 + Foretinib (first compound 0.08 µM) came to 1.06; with KIN001-266 + Foretinib (first compound 0.253 µM), 1.01; with KIN001-266 + Foretinib (first compound 0.8 µM), 0.731; with KIN001-266 + Foretinib (first compound 2.53 µM), 0.939; in the assay with KIN001-266 + Foretinib (first compound 8 µM) it was 0.954; in the assay with KIN001-266 + Alpelisib (first compound 0.08 µM), 0.941. Moreover, the relative viability with KIN001-266 + Alpelisib (first compound 0.253 µM) was found to be 0.983; in the assay with KIN001-266 + Alpelisib (first compound 0.8 µM) it was 0.959; with KIN001-266 + Alpelisib (first compound 2.53 µM) it was 1; with KIN001-266 + Alpelisib (first compound 8 µM) it was 0.795; with KIN001-266 + Pemetrexed (first compound 0.08 µM), 0.896; in the assay with KIN001-266 + Pemetrexed (first compound 0.253 µM), 0.884. Further, the relative viability turned out to be 0.738 in the assay with KIN001-266 + Pemetrexed (first compound 0.8 µM); 0.908 with KIN001-266 + Pemetrexed (first compound 2.53 µM); 0.798 with KIN001-266 + Pemetrexed (first compound 8 µM); 0.763 with KIN001-266 + Olaparib (first compound 0.08 µM); 0.791 in the assay with KIN001-266 + Olaparib (first compound 0.253 µM); 0.725 with KIN001-266 + Olaparib (first compound 0.8 µM). Further, the relative viability with KIN001-266 + Olaparib (first compound 2.53 µM) amounted to 0.721; with KIN001-266 + Olaparib (first compound 8 µM), 0.598.
